Source: patent US5480990A, “Bicyclopolyazamacrocyclocarboxylic acid complexes for use as contrast agents” (The Dow Chemical Company, priority 1993, dated 1996)

How the values were obtained:
[1] = Percent metal as a complex (Sephadex column, 159Gd tracer); type: physicochemical
Protocol: A stock ^159 GdCl3 solution was prepared by adding 2 μL of 3×10^-4 M ^159 GdCl3 in 0.1N HCl to 2 mL of a 3×10^-4 M GdCl3 carrier solution. Appropriate ligand solutions were then prepared in deionized water. The 1:1 ligand/metal complexes were then prepared by combining the ligands (dissolved in 100-500 μL of deionized water) with 2 mL of the stock 159GDCl3 solution, followed by through mixing to give an acidic solution (pH=2). The pH of the solution was then raised to 7.0 using 0.1N NaOH. The percent metal as a complex was then determined by passing a sample of the complex solution through a Sephadex™ G-50 column, eluting with 4:1 saline ([…]) and collecting 2×3 mL fractions. The amount of radioactivity in the combined elutions was then compared with that left on the resin (non-complexed metal is retained on the resin). […]
A solution of the ligand of Example D was prepared by dissolving 3.8 mg of ligand/0.517 mL of deionized water (pH=2). […] After thorough mixing, the percent metal as a complex was determined by passing a sample of the complex solution through a Sephadex™ column, eluting with 4:1 saline (0.85% NaCl/NH4 OH), and collecting 2×3 mL fractions. The amount of radioactivity in the combined elutions was then compared with that left on the resin. […] By this method complexation was determined to be 92%. […] The pH stability was then determined using the General Procedure above.

[2] = Biodistribution: % injected dose in several tissues of Sprague Dawley rats, 30 min after tail vein injection; type: in vivo; conditions: rat
Protocol: Sprague Dawley rats were allowed to acclimate for five days then injected with 100 μL of the complex solution via a tail vein. The rats weighed between 150 and 200 g at the time of injection. After 30 min. the rats were killed by cervical dislocation and dissected. The amount of radioactivity in each tissue was determined by counting in a NaI scintillation counter coupled to a multichannel analyzer. The counts were compared to the counts in 100 μL standards in order to determine the percentage of the dose in each tissue or organ.
The percent dose in blood was estimated assuming blood to be 7% of the body weight. The percent dose in bone was estimated by multipuling the percent dose in the femur by 25. The percent dose in muscle was estimated assuming muscle to be 43% of the body weight.
In addition to organ biodistribution, chelates of the compounds of Formula (I) were evaluated for efficiency of bone localization since phosphonates are known for their ability to bind to hydroxyapatite.
The percent of the injected dose of complex of Example 1 (^159 Gd-PCTA) in several tissues are given in Table I. The numbers represent the average of 5 rats? per data point.

[3] = Imaging experiments (MRI) in rat, kidney enhancement; type: in vivo, Sprague Dawley rat; conditions: intramuscular, 0.05-0.1 mmol Gd/kg body weight
Protocol: Injectable solutions were first prepared (0.5M) by dissolving the appropriate amount of each complex in 2 mL of deionized water. The pH of the solutions were then adjusted to 7.4 using 1M HCl or NaOH as needed. The total Gd content of each solution was then determined by ICP analysis.
An anethized Sprague Dawley rat was injected intramuscularly with one of the metal solutions described above at a dose of 0.05-0.1 mmol Gd/kg body weight. Images were then taken at various time intervals and compared with a non-injected control at time 0.

[4] = commercial contrast agent, background; cited from earlier work

Q: With `O=C([O-])CN1CCN(CC(=O)[O-])Cc2cccc(n2)CN(CC(=O)[O-])CC1.[159Gd+3]` [Gd-PCTA, ^159 Gd-3,6,9,15-tetraazabicyclo[9.3.1]pentadeca-1(15),11,13-triene-3,6,9-trimethylenecarboxylic acid] as the compound, how does the “complexation after passing through the resin” value ([1]; 1:1 ligand to metal ratio, after passing through the resin) read?
A: Its value is “greater than 98%”.

Q: What about the “complexation (percent metal as a complex)” value ([1]; 1:1 ligand/metal, before passing through the resin) of the same compound?
A: The value was 92%.

Q: And the “% injected dose in blood, average” value ([2]; blood (assumed 7% of body weight), 100 μL tail vein, average of 5 rats)?
A: The value was 5.10 % INJECTED DOSE.

Q: What about the “% injected dose in bone, average” value ([2]; bone (femur x 25), 100 μL tail vein, average of 5 rats) of the same compound?
A: The value was 7.38 % INJECTED DOSE.

Q: What about the “% injected dose in kidney, average” value ([2]; kidney, 100 μL tail vein, average of 5 rats) of the same compound?
A: The value was 1.81 % INJECTED DOSE.

Q: What about the “% injected dose in liver, average” value ([2]; liver, 100 μL tail vein, average of 5 rats) of the same compound?
A: Its value is 0.78 % INJECTED DOSE.

Q: What about the “% injected dose in muscle, average” value ([2]; muscle (assumed 43% of body weight), 100 μL tail vein, average of 5 rats) of the same compound?
A: The value was 7.76 % INJECTED DOSE.

Q: What about the “bone to blood ratio (% dose/g)” value ([2]; ratio of % dose/g) of the same compound?
A: Its value is 7.

Q: What about the “bone to liver ratio” value ([2]; ratio of % dose/g) of the same compound?
A: The value was 3.5.

Q: What about the “bone to muscle ratio” value ([2]; ratio of % dose/g) of the same compound?
A: The value was 4.8.

Q: And the “% injected dose in spleen, average” value ([2]; spleen, 100 μL tail vein, average of 5 rats)?
A: The value was 0.05 % INJECTED DOSE.

Q: What about the “uptake by the renal system” value [3] of the same compound?
A: The value was “rapidly taken up by the renal system”.

Q: What about the “enhancement of the kidney image” value ([3]; vs non-injected control at time 0) of the same compound?
A: The value was “brilliant enhancement of the kidney cortex as well as peripheral kidney tissue”.

Q: For `CNC[C@H](O)[C@@H](O)[C@H](O)[C@H](O)CO.CNC[C@H](O)[C@@H](O)[C@H](O)[C@H](O)CO.O=C([O-])CN(CCN(CC(=O)[O-])CC(=O)O)CCN(CC(=O)[O-])CC(=O)O.[Gd+3]` [Magnevist, complex of gadolinium with diethylenetriaminepentaacetic acid], which distribution [4] is on record?
A: The distribution was “freely distributes in extracellular fluid”.

Q: And the elimination [4]?
A: The elimination was “efficient elimination through the renal system”.
